Results: patent publication US20190059375A1, “SYNERGISTIC FUNGICIDAL COMPOSITION FOR CONTROLLING PLANT DISEASES” (Sumitomo Chemical Company, Limited, priority 2016, published 2019)

Assays:
[1] = test system: Septoria leaf blotch (Mycosphaerella graminicola); assay: Test Example 3: growth of Septoria leaf blotch in YBG medium, microtiter plate, absorbance at 550 nm; format: cell-based; conditions: single use, concentration in medium 0.005 ppm; 18° C., four days
Experimental: Each of the present compound 1 or the present compound 2 was dissolved into dimethyl sulfoxide such that each concentration of these compounds was adjusted to one hundred fifty times as much as the concentration indicated in the below-mentioned Table 2. The resultant agent solution was dispensed into each microtiter plate (with 96 wells) in 1 μl portion thereof per well. […] The plate was cultivated at 18° C. for four days, thereby allowing Septoria leaf blotch (Mycosphaerella graminicola) to undergo proliferation, and the absorbance at 550 nm of each well of the microtiter plate was then measured to examine a degree of growth of Septoria leaf blotch (hereinafter referred to as “treated group”).
Whereas, Septoria leaf blotch was proliferated similarly to the case of the treated group except that dimethyl sulfoxide was used instead of the agent solution, and the degree of the growth was examined (hereinafter referred to as “untreated group”). The efficacy was calculated from each of the obtained degree of growth of the treated group and the untreated group respectively by the following “Equation 1”. […]

[2] = test system: Brown rust (Puccinia recondita); assay: Test Example 4: foliar spray on wheat, Brown rust lesion area; format: in vivo, Puccinia recondita on wheat (cultivar. Shirogane); conditions: single use, foliar spray one day before inoculation, lesion area after ten days
Experimental: Five (5) parts of the present compound 1, 35 parts of a mixture of white carbon and ammonium polyoxyethylene alkyl ether sulfate (the weight ratio of 1:1) and […] of water were mixed, and the mixture was then finely-ground by a wet grinding method to obtain a flowable comprising the present compound 1. Separately, the flowable comprising the present compound 2 was prepared according to the above-mentioned similar method except that the present compound 2 was used instead of the present compound 1.
Each of the flowable comprising the present compound 1 and the flowable comprising the present compound 2 was diluted with water and if necessary, the resultant dilute solutions were mixed each other such that each concentration of the respective compounds in the dilution solution was adjusted to the concentration indicated in Table 3, to prepare the dilution solutions, respectively.
A plastic pot was filled with soil, and thereto wheat (cultivar. Shirogane) was seeded, and the plants were grown in a greenhouse for ten days. The above-mentioned dilution solutions were sprayed to foliar parts so as to adhere adequately onto the surfaces of leaves of the above wheats. After spraying the dilute solution, the plants were air-dried, and one day after the application, an aqueous suspension of uredospores of Brown rust (Puccinia recondita) was inoculated by spraying thereto. After the inoculation, the plants were placed at 27° C. under humid condition for one day, and were then cultivated under lighting for ten days, and a lesion area was examined (hereinafter referred to as “lesion area of treated group”).
Whereas, wheats were cultivated similarly to the treated group except that no foliage application of the above-mentioned agent solution was done, and Brown rust were inoculated, and the lesion area thereof was examined (hereinafter referred to as “lesion area of the untreated group”).
From each of the lesion area of the treated group and the untreated group, respectively, the efficacy of the treated group was calculated by the following Equation 2. […]

Row | SMILES | Efficacy (%) [1] [%] | Efficacy (%) ([2]; concentration in agent solution 0.0001 ppm) | Efficacy (%) ([2]; concentration in agent solution 0.01 ppm) | Efficacy (%) ([2]; concentration in agent solution 0.001 ppm)
1 | CNC(=O)C(OC)c1ccccc1COc1cc(C)ccc1C (stereo not shown) [Present compound 1] | 20 | 22 | 46 | –
2 | CC1CC(C)(C)c2c(F)ccc(NC(=O)c3cn(C)nc3C(F)F)c21 (stereo not shown) [Present compound 2] | – | – | – | 15
